row,Compound,melting point [°C]
1,O=[N+]([O-])c1ccc(OCCc2c[nH]cn2)cc1,197 to 200
2,CCCCCCCCCCCCCCOC(=O)CCCCc1cc(OC(C)=O)c(OC(C)=O)c([N+](=O)[O-])c1,46 to 47
3,COc1ccc2c3c(c(=O)oc2c1)CN(Cc1cccc(Cl)c1)CC3,112 to 115
4,O=C(CSCCCCOc1ccccc1)NNC(=O)c1ccc(O)cc1,113 to 115
5,O=C(CCCN1C(=O)c2ccccc2C1=O)N1CCCC2=C1CCc1cc(Cl)ccc12,182 to 183
6,COc1ccc2cc([C@H](C)C(=O)OCC(=O)O)ccc2c1,122 to 123
7,CC(C)(C)OC(=O)CN(CCO)C(=O)c1cc([N+](=O)[O-])ccc1F,116 to 118
8,OCC1OC(n2cnc3c(NCCc4cn(Cc5ccc(Cl)cc5)c5ccccc45)ncnc32)C(O)C1O (stereo not given),181
9,COC(=O)CCCc1cc2nc(Cl)ccc2n1S(=O)(=O)c1cccc(Cl)c1,107
10,O=C(O)C(=NOc1ccccc1)c1ccccc1,105
11,Cc1ccc2nc(-c3ccccc3Br)ncc2c1,70 to 71
12,Cc1ccccc1C(=O)c1nc[nH]c1C,165 to 166
13,COc1cc2c(cc1OCc1ccccc1)C(Sc1ccc(Cl)cc1)(C(N)=CC(=O)OC(C)(C)C)C2 (stereo not given),112 to 115
14,COc1cnc(C(=O)Nc2c(Cl)cncc2Cl)cc1OC1CCCC1,129 to 130
15,Cc1ccc(S(=O)(=O)Nc2ccc3[nH]c(=O)c4ccccc4c3c2)cc1,199 to 203
16,O=C1C=C(NC(=O)C(=O)c2cn(Cc3c(F)c(F)c(F)c(F)c3F)c3ccccc23)CO1,280 to 282
17,CS(=O)(=O)Nc1ccc2[nH]ccc2c1,133 to 135
18,Cc1ccc(NC(=S)N2CCC(O)C2)c(C)c1 (stereo not given),164 to 166
19,COc1cc(C)ccc1C(=O)O,103 to 104
20,Cc1ccc(S(=O)(=O)NC2CCCCC2NC(=O)OC(C)(C)C)cc1 (stereo not given),137 to 139
21,CNC(=O)Cn1c(-c2ccccn2)nc2cccnc21,228 to 230
22,N#CC(CCCCOc1ccccc1)(Cn1cncn1)c1ccccc1 (stereo not given),95 to 96
23,CN(C)c1ccc([N+](=O)[O-])c(C#N)c1,174 to 175
24,Cc1ccc(S(=O)(=O)OCC2Cc3cc(Cl)cc(-c4cccc(Cl)c4)c3O2)cc1 (stereo not given),80 to 82
25,ICCCCCOc1ccc(C2=C(c3ccccc3)CCCc3ccccc32)cc1,104 to 106

row,Compound,melting point [°C]
1,CC(C)Nc1cccnc1N1CCN(C(=O)c2ccc(C(=O)N3CCN(CC(O)CO)CC3)cc2)CC1 (stereo not given),158
2,Cc1cccc(NC(=O)NC2CN(C(=O)C(C)C)c3ccccc3N(CC(=O)c3ccccc3C)C2=O)c1 (stereo not given),174 to 176
3,COC(=O)c1ccc2oc(CCC=O)cc2c1,48 to 49
4,CCCc1c(C(=O)C2CCCCC2)c2ccc(C(N)=O)cc2n1Cc1cc2c(cc1Cl)OCO2,209 to 211
5,Brc1ccnc2cc3c(cc12)OCO3,147 to 149
6,CCC#CCOc1cc2c(cc1C=O)C(C)(C)CCC2(C)C,90 to 91
7,Cc1cc(C)c2nc(C)c(NC(=O)Nc3cccc(C(F)(F)F)c3)c(-c3ccccc3Cl)c2c1,146 to 147
8,CCCSC1(SCCC)CCC2C3CCC4=CC(=O)C=CC4(C)C3(F)C(O)CC21C (stereo not given),235 to 237
9,CN1CC(CO)CC2c3cccc4c3C(CN4)CC21 (stereo not given),226 to 228
10,CN1Cc2c(C(=O)OC3CCCC3)ncn2-c2cccc(Cl)c2C1=O,162 to 163
11,CC(C)(C)OC(=O)NC1COCCCC=CC2CC2(C(=O)NS(=O)(=O)C2CC2)NC(=O)C2CC(OC(=O)N3CCc4ccccc43)CN2C1=O (stereo not given),128 to 130
12,COc1ccc(C)cc1NC(=O)Nc1ccc(N2CCN(C(=O)Nc3c(CO)cccc3C(F)(F)F)CC2)cc1,139 to 140
13,O=C(Cc1ccccc1)Nc1ccnc(NC(=O)NCc2ccccn2)c1,219 to 220
14,COc1cc(Br)c(O)c(C=O)c1,107 to 110
15,COC(=O)C1c2ccc(OCc3ccccc3)cc2CCN1CC(=O)N1CCC(c2ccccc2)CC1 (stereo not given),112 to 114
16,FC(F)C(F)(F)Oc1cccc(Nc2nccc(-c3ccsc3)n2)c1,110 to 111
17,Cc1sc(C(=O)O)c(SC(C)C)c1Br,132 to 134
18,Cc1nnc(C)n1-c1ccc(C#N)cc1,> 230
19,CCC(=CC(CNC(=O)c1ccc(N)nc1)=NO)C(C)[N+](=O)[O-] (stereo not given),157 to 161
20,O=S1(=O)CCCS(=O)(=O)C1(CCCCl)c1ccccc1,182
21,Cc1ncc(C(=O)Nc2ccc(-n3nc(C(F)(F)F)cc3C3CC3)cc2)c(C)n1,145 to 147
22,CC(=NO)c1ccc2c(c1)CCC2,104
23,Nc1ccc([C@H]2CC[C@H](NCCCc3ccccc3)CC2)cc1,60 to 63
24,CN(C)c1cc(C(O)CS(C)(=O)=O)cc(N(C)C)c1 (stereo not given),128 to 130
25,CCNc1cncc(S(=O)(=O)N(CC)CC)c1,58 to 60

row,Compound,melting point [°C]
1,COC(=O)CCc1cc(C(=O)c2ccc(OC)cc2)c(OC)cc1OC,114 to 117
2,COC(=O)c1c(C(=O)OC)c(-c2nccnc2C)n(NS(=O)(=O)c2ccc(C)cc2)c1C,155 to 156
3,CC(O)(C#Cc1ccc(C(=O)c2ccccc2)cc1)C(F)(F)F (stereo not given),94.5 to 96
4,CCOC(=O)C(=CNNc1c(Cl)cc(C(F)(F)F)cc1Cl)C(=O)OCC,86
5,COc1ccccc1C(O)c1cccc2c1ccn2C (stereo not given),95
6,CN(Cc1ccc(NC(=O)C2=Cc3cc(-c4ccc(OCc5ccc(Cl)s5)cc4)ccc3S(=O)(=O)CC2)cc1)C1CCOCC1,207 to 210
7,Clc1cccc(Oc2ncccc2Br)c1,88 to 90
8,CN(C)CCNC(=O)c1cccc(-c2cccc3cn(Cc4cccc(C(F)(F)F)c4)nc23)c1,102 to 103
9,Cc1ccccc1NC(=O)/C=C/C=C/CC1CCc2c(cccc2C(F)(F)F)C1 (stereo not given),171
10,Clc1ccc2oc(C3CCNCC3)cc2c1,77 to 78
11,CCCCCCCCCOC1C(O)C(CO)OC1n1cnc2c(=O)[nH]c(NC(=O)C(C)C)nc21 (stereo not given),168 to 169
12,Clc1cc(Nc2ccccc2)c2nc[nH]c2n1,> 300
13,Cc1c(NC(=O)CC(C)(C)C)c(C)c2c(c1-c1ccco1)OC[C@@H]2c1ccc(C(C)C)cc1,214 to 217
14,CCOC(=O)C(=CNCc1cnsn1)C(=O)c1cc(F)c(F)cc1F,168 to 170
15,"CCCN1CCCC1CNC(=O)c1c(OC)ccc(Br)c1OC (single isomer, unassigned; (-))",103 to 104
16,CCCCCc1ccc(Oc2cccc(C=C3SC(=S)NC3=O)c2)cc1,125 to 127
17,CCOc1ccc(-n2c(N)cc(=O)[nH]c2=S)cc1,222 to 225
18,COC(=O)c1cc(-c2nc3ccccc3s2)cc2c1OC(c1ccccc1)(c1ccccc1)O2,184 to 185
19,O=C(O)Cc1ccc2c(c1)C(=O)c1ccccc1CO2,126 to 128
20,CC(C)(C)c1cc(C(=NNc2ccccc2)c2cccnc2Cl)cc(C(C)(C)C)c1O,181
21,S=C1CN=C(c2ccccc2Cl)c2cc(Cl)ccc2N1,251 to 253
22,OC1(c2ccc3c(c2)OCO3)CCN(CCc2ccccc2)CC1,123 to 125
23,COC(=O)N1CCCc2onc(OC)c2C1,68 to 70
24,COC(=O)c1cc(OCC=C(Cl)Cl)cc(Cl)c1OC,103
25,CCCCCCCCCCCCc1ccccc1C(SC(CC(=O)O)C(=O)O)C(=O)O (stereo not given),85 to 89

row,Compound,melting point [°C]
1,CS(=O)(=O)Oc1ccc2c(c1)[nH]c(=O)c1c3ccc(OS(C)(=O)=O)cc3oc21,> 300
2,CC(=O)c1cccc(-c2ncc(OCCCN(C)C)cn2)c1,61 to 62
3,CCCC(OCCc1ccc(-c2ccc(Cl)cc2)cc1)C(=O)O (stereo not given),89 to 90
4,N[C@H](Cc1cccc(OC(F)(F)C(F)F)c1)[C@@H](O)c1csc(-c2ccccc2)n1 (racemic),128 to 130
5,N#CC1=C(C2CCCN2)Nc2n[nH]cc2C1c1cccc(C#N)c1Br (stereo not given),> 240
6,Cc1c2cccccc-2c(-c2ccccc2)c1-c1ccc(S(C)(=O)=O)cc1,165 to 167
7,CCCCCCCCCCCCNC(=O)c1cc(Br)c(OCCNC(=O)OC)c(-c2cccc(C(F)(F)F)c2)c1,79.6 to 80.5
8,CN1C2=NC(C)(C)N(C)C(=O)N2c2ccccc21,79 to 82
9,O=C(O)C(Oc1ccc(OCc2ccccc2)cc1)c1ccc(OCCCOc2ccc(Cl)cc2)cc1 (stereo not given),105 to 109
10,COc1ccc(C#N)cc1/C=C/C(=O)Sc1nc2ccccc2s1,183 to 185
11,CC(=Cc1ccccc1)c1cc2c(cc1C)C(C)(C)CCC2(C)C,75 to 77
12,COC(=O)c1ccc2c(c1)C(=O)N(c1ccccc1)C2=O,200 to 207
13,CCC1CCC(=O)C=C1c1ccc(OCC(=O)O)c(Cl)c1Cl (stereo not given),164 to 165
14,CCCc1c(C(=O)OC)[nH]c2c(C)ccc(Cl)c12,109 to 110
15,CC(=O)NC(C#N)NC(=O)c1cc(Cl)cc(Cl)c1 (stereo not given),227 to 228
16,CCOC(=O)c1cc2c(C=O)cc3c4ccccc4ccc3c2s1,196 to 197
17,CC(C)(C)c1ccc(C(=O)Nc2cn3cc(C#N)ccc3n2)cc1,300 to 301
18,CC(C)Oc1cccc(N2CC(=O)NC(=O)N2)c1,170 to 172
19,COc1ccc(CNC(=O)c2nc3scc(COCc4ccc(C(=O)O)cc4)c3c(=O)[nH]2)cc1,271 to 273
20,Cn1c(N2CC3CC2CN3C(=O)OC(C)(C)C)nc(-c2ccncn2)cc1=O (stereo not given),198 to 200
21,COc1ccc(CNC(=O)c2cnc(SC)nc2NC(C)C)cc1,176 to 177
22,CCOC(=O)C1=C(C)NC(C)=C(C(=O)OCC)C1c1csc2cc([N+](=O)[O-])ccc12,191 to 194
23,CCOC(=O)c1ccc(OCC2CCCCC2)c([N+](=O)[O-])c1,79 to 80
24,N#CCCNC(=O)Sc1ccccc1,86 to 90
25,O=C(NCc1c[nH]c(=S)n1[C@H]1CCc2c(F)cc(F)cc2C1)c1ccccc1,260 to 261

# From a melting point compilation (Tetko et al.; mined from patent text by program, amines drawn as free bases though some values may be those of a salt)
